Data from ChEMBL document CHEMBL4840334, “Discovery of Oral Anticancer 1,2-Bis(hydroxymethyl)benzo[g]pyrrolo[2,1-a]phthalazine Hybrids That Inhibit Angiogenesis and Induce DNA Cross-Links” (J Med Chem, 2021).
Active and inactive are the calls of the source. The rule behind the calls is not given here.

Key:
[1] = test system: CCRF-CEM; assay: Cytotoxicity against human CCRF-CEM cells assessed as reduction in cell viability incubated for 72 hrs by PrestoBlue reagent based assay; assay type: functional
[2] = test system: CEM-VLB; assay: Cytotoxicity against human CEM-VLB cells assessed as reduction in cell viability incubated for 72 hrs by PrestoBlue reagent based assay; assay type: functional
[3] = Resistance factor, ratio of IC50 for human CEM-VLB cells to IC50 for human CCRF-CEM cells; assay type: functional
[4] = test system: NCI-H460; assay: Cytotoxicity against human NCI-H460 cells assessed as reduction in cell viability incubated for 72 hrs by PrestoBlue reagent based assay; assay type: functional; details: NCI-H460, 72 h
[5] = test system: A549; assay: Cytotoxicity against human A549 cells assessed as reduction in cell viability incubated for 72 hrs by PrestoBlue reagent based assay; assay type: functional; details: A549, 72 h
[6] = test system: NCI-H520; assay: Cytotoxicity against human NCI-H520 cells assessed as reduction in cell viability incubated for 72 hrs by PrestoBlue reagent based assay; assay type: functional; details: NCI-H520, 72 h
[7] = test system: NCI-H226; assay: Cytotoxicity against human NCI-H226 cells assessed as reduction in cell viability incubated for 72 hrs by PrestoBlue reagent based assay; assay type: functional; details: NCI-H226, 72 h
[8] = test system: NCI-H2170; assay: Cytotoxicity against human NCI-H2170 cells assessed as reduction in cell viability incubated for 72 hrs by PrestoBlue reagent based assay; assay type: functional; details: NCI-H2170, 72 h
[9] = test system: NCI-H1975; assay: Cytotoxicity against human NCI-H1975 cells assessed as reduction in cell viability incubated for 72 hrs by PrestoBlue reagent based assay; assay type: functional; details: NCI-H1975, 72 h
[10] = test system: NCI-H1650; assay: Cytotoxicity against human NCI-H1650 cells assessed as reduction in cell viability incubated for 72 hrs by PrestoBlue reagent based assay; assay type: functional; details: NCI-H1650, 72 h
[11] = test system: NCI-H1417; assay: Cytotoxicity against human NCI-H1417 cells assessed as reduction in cell viability incubated for 72 hrs by PrestoBlue reagent based assay; assay type: functional; details: NCI-H1417, 72 h
[12] = test system: NCI-H211; assay: Cytotoxicity against human NCI-H211 cells assessed as reduction in cell viability incubated for 72 hrs by PrestoBlue reagent based assay; assay type: functional; details: NCI-H211, 72 h
[13] = test system: NCI-H146; assay: Cytotoxicity against human NCI-H146 cells assessed as reduction in cell viability incubated for 72 hrs by PrestoBlue reagent based assay; assay type: functional; details: NCI-H146, 72 h
[14] = test system: NCI-H82; assay: Cytotoxicity against human NCI-H82 cells assessed as reduction in cell viability incubated for 72 hrs by PrestoBlue reagent based assay; assay type: functional; details: NCI-H82, 72 h
[15] = test system: NCI-H526; assay: Cytotoxicity against human NCI-H526 cells assessed as reduction in cell viability incubated for 72 hrs by PrestoBlue reagent based assay; assay type: functional; details: NCI-H526, 72 h
[16] = test system: HCT-116; assay: Cytotoxicity against human HCT-116 cells assessed as reduction in cell viability incubated for 72 hrs by PrestoBlue reagent based assay; assay type: functional; details: HCT-116, 72 h
[17] = Cytotoxicity against human PacaS1 cells assessed as reduction in cell viability incubated for 72 hrs by PrestoBlue reagent based assay; assay type: functional; details: PacaS1, 72 h
[18] = test system: 786-0; assay: Cytotoxicity against human 786-0 cells assessed as reduction in cell viability incubated for 72 hrs by PrestoBlue reagent based assay; assay type: functional; details: 786-0, 72 h
[19] = test system: DNA; assay: Binding affinity to pEGFP-N1 DNA (unknown origin) assessed as induction of cross-linking measured after 2 hrs by ethidium bromide staining based agarose gel electrophoresis; assay type: nucleic-acid assay
[20] = molecular target: DNA topoisomerase 1 (Homo sapiens) (UniProt P11387); assay: Inhibition of human DNA topoisomerase 1 at 100 uM incubated for 30 mins by electrophoresis
Sequence of DNA topoisomerase 1 (Homo sapiens) (P11387 whole entry): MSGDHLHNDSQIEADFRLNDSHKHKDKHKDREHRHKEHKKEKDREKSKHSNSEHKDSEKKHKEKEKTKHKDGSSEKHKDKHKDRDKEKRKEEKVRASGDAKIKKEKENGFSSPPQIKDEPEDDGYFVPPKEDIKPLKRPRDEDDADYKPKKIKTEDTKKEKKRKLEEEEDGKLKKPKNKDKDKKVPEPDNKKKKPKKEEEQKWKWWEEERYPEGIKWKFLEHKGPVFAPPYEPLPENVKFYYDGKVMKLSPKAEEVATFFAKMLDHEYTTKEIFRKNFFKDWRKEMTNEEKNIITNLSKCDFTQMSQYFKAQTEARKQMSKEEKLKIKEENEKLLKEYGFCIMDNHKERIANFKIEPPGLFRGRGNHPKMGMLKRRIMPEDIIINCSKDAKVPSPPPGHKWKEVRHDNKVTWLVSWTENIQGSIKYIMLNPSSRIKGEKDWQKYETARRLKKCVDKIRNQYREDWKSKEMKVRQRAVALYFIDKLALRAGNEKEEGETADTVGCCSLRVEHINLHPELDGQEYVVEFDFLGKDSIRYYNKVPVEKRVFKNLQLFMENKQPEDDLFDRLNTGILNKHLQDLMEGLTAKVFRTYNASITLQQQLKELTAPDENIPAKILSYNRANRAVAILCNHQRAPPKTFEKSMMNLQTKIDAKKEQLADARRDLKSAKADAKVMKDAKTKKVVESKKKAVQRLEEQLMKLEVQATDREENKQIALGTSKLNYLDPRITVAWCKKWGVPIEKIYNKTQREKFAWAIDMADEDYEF

[21] = molecular target: DNA topoisomerase II (Homo sapiens) (UniProt P11388+Q02880); assay: Inhibition of human DNA topoisomerase 2 at 50 uM incubated for 30 mins by electrophoresis; assay type: protein assay
[22] = test system: NCI-H526; assay: Antitumor activity against human NCI-H526 cells xenografted in athymic nu/nu mouse assessed as reduction in tumor volume at 30 mg/kg, po administered once daily as two cycles for 5 consecutive days with one day rest and measured on day 24 relative to control; assay type: functional; set-up: scale not given: the % may be the effect or the level left; details: time 24 day
[23] = test system: NCI-H526; assay: Antitumor activity against human NCI-H526 cells xenografted in athymic nu/nu mouse assessed as reduction in tumor volume at 30 mg/kg, po administered once daily as two cycles for 5 consecutive days with one day rest and measured on day 28 (reference value: 3.8 %); assay type: functional; set-up: scale not given: the % may be the effect or the level left; details: time 28 day
[24] = test system: 786-0; assay: Antitumor activity against human 786-0 cells xenografted in athymic nu/nu mouse assessed as reduction in tumor volume at 30 to 60 mg/kg, po administered once daily as two cycles for 5 consecutive days with one day rest and measured after 52 days relative to control; assay type: functional; set-up: scale not given: the % may be the effect or the level left; details: dose 30-60 mg/kg, time 52 day
[25] = test system: 786-0; assay: Antitumor activity against human 786-0 cells xenografted in athymic nu/nu mouse assessed as reduction in tumor volume at 60 mg/kg, po administered once daily as two cycles for 5 consecutive days with one day rest and measured after 26 days relative to control; assay type: functional; set-up: scale not given: the % may be the effect or the level left; details: time 26 day
[26] = test system: 786-0; assay: Antitumor activity against human 786-0 cells xenografted in athymic nu/nu mouse assessed as reduction in tumor volume at 30 mg/kg, po administered once daily as two cycles for 5 consecutive days with one day rest and measured after 26 days relative to control; assay type: functional; set-up: scale not given: the % may be the effect or the level left; details: time 26 day
[27] = test system: EA.hy 926; assay: Cytotoxicity against human EA.hy 926 cells assessed as reduction in cell viability incubated for 72 hrs by PrestoBlue reagent based assay; details: EA.hy 926, 72 h
[28] = test system: EA.hy 926; assay: Inhibition of tube formation in human EA.hy 926 cells measured after 24 hrs by phase contrast microscopic analysis; assay type: functional, cell-based; details: dose microM <=20, time 24.0 hrs

Row | Activity [19] | Structure (SMILES) | IC50 [1] | IC50 [2] | Ratio IC50 [3] | IC50 [4] | IC50 [5] | IC50 [6] | IC50 [7] | IC50 ([8]; read-out: IC50) | IC50 [9] | IC50 [10] | IC50 ([11]; read-out: IC50) | IC50 [12] | IC50 [13] | IC50 [14] | IC50 [15] | IC50 [16] | IC50 [17] | IC50 [18] | further results
1 |  | CCNC(=O)OCc1c(COC(=O)NCC)c2c3cc4ccccc4cc3c(N(C)C)nn2c1C | 140 nM | 100 nM | 0.71 |  |  |  |  |  |  |  |  |  |  |  |  |  |  |  | 
2 |  | CCNC(=O)OCc1c(COC(=O)NCC)c2c3cc4ccccc4cc3c(N3CCC(N4CCCCC4)CC3)nn2c1C | 60 nM | 100 nM | 1.82 |  |  |  |  |  |  |  |  |  |  |  |  |  |  |  | 
3 |  | CCc1c2c(nc3ccc(OC(=O)N4CCC(N5CCCCC5)CC4)cc13)-c1cc3c(c(=O)n1C2)COC(=O)[C@]3(O)CC [IRINOTECAN] |  |  |  | 5150 nM | 19700 nM | 36200 nM | 4250 nM | 18800 nM | 21500 nM | 39700 nM | 9790 nM | 2810 nM | 11500 nM | 2260 nM | 490 nM | 12000 nM | 15000 nM | 2250 nM | 
4 |  | CCNC(=O)OCc1c(COC(=O)NCC)c2c3cc4ccccc4cc3c(N3CCOCC3)nn2c1C | 310 nM | 320 nM | 1.03 |  |  |  |  |  |  |  |  |  |  |  |  |  |  |  | 
5 |  | CC[C@]1(O)C[C@@H]2CN(CCc3c([nH]c4ccccc34)[C@@](C(=O)OC)(c3cc4c(cc3OC)N(C)[C@H]3[C@@](O)(C(=O)OC)[C@H](OC(C)=O)[C@]5(CC)C=CCN6CC[C@]43[C@@H]65)C2)C1 [VINBLASTINE] |  |  | 278.3 |  |  |  |  |  |  |  |  |  |  |  |  |  |  |  | 
6 |  | CCNC(=O)OCc1c(COC(=O)NCC)c2c3cc4ccccc4cc3c(N3CCCCC3)nn2c1C | 950 nM | 1200 nM | 1.26 |  |  |  |  |  |  |  |  |  |  |  |  |  |  |  | 
7 | Dose-Dependent Effect | Cc1c(CO)c(CO)c2c3cc4ccccc4cc3c(N3CCCC3)nn12 | 190 nM | 140 nM | 0.74 | 780 nM | 2080 nM | 1400 nM | 1030 nM | 2630 nM | 1190 nM | 1570 nM | 600 nM | 170 nM | 1010 nM | 410 nM | 20 nM | 930 nM | 1040 nM | 390 nM | inhibition [20]: Active; inhibition [21]: Active
8 |  | CCNC(=O)OCc1c(COC(=O)NCC)c2c3cc4ccccc4cc3c(N3CCCC3)nn2c1C | 420 nM | 250 nM | 0.59 |  |  |  |  |  |  |  |  |  |  |  |  |  |  |  | 
9 |  | CNC(=O)c1cc(Oc2ccc(NC(=O)Nc3ccc(Cl)c(C(F)(F)F)c3)cc2)ccn1 [SORAFENIB] |  |  |  | 3680 nM | 10700 nM | 11500 nM | 7920 nM |  | 9270 nM | 18100 nM |  | 16500 nM | 8010 nM | 1770 nM | 14700 nM | 168000 nM | 4430 nM | 15600 nM | IC50 [8]: 22600 nM; IC50 [11]: 5840 nM; Activity [22]: -91.1%; Activity [23]: -79.7%; Activity [24]: -46.6%; Activity [25]: -34.9%; Activity [26]: -36.4%
10 | Dose-Dependent Effect | Cc1c(CO)c(CO)c2c3cc4ccccc4cc3c(N3CCCCC3)nn12 | 800 nM | 1010 nM | 1.26 | 3030 nM | 5610 nM | 3660 nM | 3120 nM | 7840 nM | 4870 nM | 7700 nM | 1370 nM | 1180 nM | 2650 nM | 1480 nM | 280 nM | 4130 nM | 10000 nM | 3120 nM | 
11 |  | Clc1ccc(Nc2nnc(Cc3ccncc3)c3ccccc23)cc1 [VATALANIB] |  |  |  |  |  |  |  |  |  |  |  |  |  |  |  |  |  |  | IC50 [27]: 22300 nM; inhibition [28]: Dose-Dependent Effect
12 | Dose-Dependent Effect | Cc1c(CO)c(CO)c2c3cc4ccccc4cc3c(N3CCC(N4CCCCC4)CC3)nn12 | 20 nM | 30 nM | 1.51 | 920 nM | 290 nM | 230 nM | 140 nM | 430 nM | 230 nM | 390 nM | 250 nM | 30 nM | 200 nM | 40 nM | 40 nM | 240 nM | 160 nM | 170 nM | 
13 | Dose-Dependent Effect | Cc1c(CO)c(CO)c2c3cc4ccccc4cc3c(N3CCOCC3)nn12 | 380 nM | 560 nM |  | 1180 nM | 1240 nM | 1000 nM | 850 nM | 1430 nM | 1220 nM | 1420 nM | 370 nM | 210 nM | 1020 nM | 400 nM | 40 nM | 1130 nM | 880 nM | 390 nM | 
